Key:
A375-NRAS^Q61K cells = experiment: CTGlo Cell Viability Assay, A375-NRAS^Q61K (A375.11) cells, 96 hours; assay type: cell-based, human; details: A375.11 (A375-NRAS^Q61K) cells; for Emax / CTGlo A375.11 96 hours Emax: lowest % viability achieved
In short: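 Viability as CellTiter-Glo ATP luminescence after 96 h compound exposure at 37 °C; A375.11 (BRAF V600E/NRAS Q61K) cells at 250/well, top final concentration 10 μM in half-log steps. Signal was background-corrected and set relative to DMSO controls. A 4-parameter logistic fit gave GI50 (50% crossing) and Emax.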

[1] = target: T1, human bile salt export pump (BSEP) efflux transporter (Homo sapiens, UniProt O95342); experiment: BSEP Vesicular Transport Inhibition Assay (IC50 determination); assay type: biochemical; details: human BSEP (HEK293) vesicles, taurocholate 0.2 μM, 4 mM Mg-ATP, 10 concentrations, 1 replicate
T1 construct: purchased SOLVO Biotechnology Charles River Laboratories, Szeged, Hungary; host or cells: HEK293 (inside out membrane vesicles)
T1 sequence (O95342 whole entry): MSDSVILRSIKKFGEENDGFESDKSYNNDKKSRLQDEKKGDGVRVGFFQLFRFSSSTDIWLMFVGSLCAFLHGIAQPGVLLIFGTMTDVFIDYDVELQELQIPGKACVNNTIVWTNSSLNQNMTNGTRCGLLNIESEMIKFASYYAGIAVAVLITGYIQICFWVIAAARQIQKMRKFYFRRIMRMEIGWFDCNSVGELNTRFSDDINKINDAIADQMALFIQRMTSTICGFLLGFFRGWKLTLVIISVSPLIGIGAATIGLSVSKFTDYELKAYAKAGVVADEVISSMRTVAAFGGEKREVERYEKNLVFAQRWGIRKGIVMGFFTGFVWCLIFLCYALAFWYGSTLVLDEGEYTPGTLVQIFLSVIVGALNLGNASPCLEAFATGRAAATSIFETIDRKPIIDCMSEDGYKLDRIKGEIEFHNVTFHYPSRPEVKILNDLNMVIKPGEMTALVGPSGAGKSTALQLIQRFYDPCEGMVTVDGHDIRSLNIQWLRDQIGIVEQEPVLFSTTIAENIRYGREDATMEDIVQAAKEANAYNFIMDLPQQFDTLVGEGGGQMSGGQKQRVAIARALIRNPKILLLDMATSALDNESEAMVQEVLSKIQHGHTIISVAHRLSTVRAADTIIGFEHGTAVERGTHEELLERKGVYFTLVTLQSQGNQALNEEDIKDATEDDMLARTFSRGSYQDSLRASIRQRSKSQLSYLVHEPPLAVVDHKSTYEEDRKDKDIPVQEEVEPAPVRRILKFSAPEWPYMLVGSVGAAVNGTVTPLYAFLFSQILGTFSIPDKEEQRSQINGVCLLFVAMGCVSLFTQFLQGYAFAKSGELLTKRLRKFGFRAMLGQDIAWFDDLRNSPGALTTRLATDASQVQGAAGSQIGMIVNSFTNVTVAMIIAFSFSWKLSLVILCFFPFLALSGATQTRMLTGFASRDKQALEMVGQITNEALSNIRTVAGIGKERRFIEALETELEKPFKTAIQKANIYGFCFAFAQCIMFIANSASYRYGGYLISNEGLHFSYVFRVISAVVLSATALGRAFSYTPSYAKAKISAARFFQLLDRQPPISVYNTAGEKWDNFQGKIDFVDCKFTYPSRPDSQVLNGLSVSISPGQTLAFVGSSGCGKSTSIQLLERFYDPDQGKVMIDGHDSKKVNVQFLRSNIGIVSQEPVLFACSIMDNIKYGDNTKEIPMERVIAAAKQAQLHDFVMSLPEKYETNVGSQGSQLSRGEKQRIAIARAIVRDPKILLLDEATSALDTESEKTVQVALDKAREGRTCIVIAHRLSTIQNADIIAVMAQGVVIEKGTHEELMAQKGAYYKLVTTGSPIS
Experimental: The vesicular transport (VT) assays were performed using inside out membrane vesicles derived from HEK293 cells expressing the specified human bile salt export pump (BSEP) efflux transporter. The membrane vesicles were procured from SOLVO Biotechnology Charles River Laboratories, Szeged, Hungary.
The principle of the assay relies on measuring the accumulation of substrate into inside out vesicles containing the efflux transporter. By utilizing inside out vesicles, the ATP-dependent transport of substrate is directed into the vesicular lumen, where low permeability compounds are then essentially trapped.
For the IC50 screen inhibition assay, 10 concentrations of each compound were tested in the presence of ATP (active transport) in 1 replicate.
The solvent control (DMSO) was tested in the presence of ATP (active transport) and in the presence of AMP (background) in 8 replicates.
Vesicular transport inhibition assays were performed using the specific parameters for each transporter inhibition assay described in Table 53.
Table 54 specifies treatment groups and concentration of compounds, that were examined in the vesicular transport inhibition assay. Detailed data of IC50 screen inhibition assay are shown in Table 55 and detailed data of 1 concentration inhibition assay are shown in Table 56.
The vesicular transport inhibition assay was performed with 4 mM Mg-ATP. For the IC50 screen inhibition assay, 10 concentrations of each compound were tested in the presence of ATP in 1 replicate. For the 1 concentration inhibition assay, 1 concentration of each compound was tested in the presence of ATP (active transport) in 2 replicates. The solvent control (DMSO) was tested in the presence of 4 mM Mg-ATP (active transport) and in the presence of 4 mM AMP (background) in 8 replicates.
The BSEP membrane vesicle suspension was mixed with the ice-cold transport buffer, then the taurocholate probe substrate solution was added (Reaction mixture, 50 μL per well). The compounds were added to the reaction mixture at 1.5-times the final assay concentration. […].
Reaction mixtures and the start reagent (Mg-ATP or AMP in transport buffer) were pre-warmed separately for 15 minutes to reach the incubation temperature of 37° C. […]
The reaction was initiated by the addition of the start reagent (25 μL) to the reaction mixture (diluting the reaction mixture to the final concentration). […] After the 5-minute incubation at 37° C., the reaction was stopped by the addition of 250 μL ice-cold washing mix to each well. […]
The samples were then be transferred to a filter plate and washed with 200 μL cold washing mix5-times to remove any free compounds or taurocholate probe substrate. The amount of taurocholate probe substrate inside the filtered vesicles were determined by liquid scintillation counting. […]

| Compound | GI50 (A375-NRAS^Q61K cells; Homo sapiens, 96 h) [µM] | Emax (A375-NRAS^Q61K cells; Homo sapiens, 96 h) [%] | BSEP Inhibition/IC50 ([1]; in nM) | GI50 (A375-NRAS^Q61K cells) [µM] | CTGlo A375.11 96 hours Emax (A375-NRAS^Q61K cells) | BSEP Inhibition/IC50 [1] [µM] |
| --- | --- | --- | --- | --- | --- | --- |
| CCN(C)S(=O)(=O)Nc1ccc(F)c(Oc2ccc3ncn(C4CC5(CCN(C6CCN(c7cc8c(cc7F)c(N7CCC(=O)NC7=O)nn8C)CC6)CC5)C4)c(=O)c3c2)c1C#N [Compound 156, 6-[2-cyano-3-[[ethyl(methyl)sulfamoyl]amino]-6-fluoro-phenoxy]-3-[7-[1-[3-(2,4-dioxohexahydropyrimidin-1-yl)-5-fluoro-1-methyl-indazol-6-yl]-4-piperidyl]-7-azaspiro[3.5]nonan-2-yl]-4-oxo-quinazoline] | < 1 | 50 to 90 | >40000 |  |  |  |
| Cn1nc(N2CCC(=O)NC2=O)c2cc(F)c(N3CC4(CC(N5CCC6(CC5)CC(n5cnc7ccc(Oc8c(F)ccc(NS(=O)(=O)N9C[C@H]%10C[C@H]%10C9)c8C#N)cc7c5=O)C6)C4)C3)cc21 (stereo partly drawn) [Compound 277, (1R,5S)-N-[2-cyano-3-[3-[7-[2-[3-(2,4-dioxohexahydropyrimidin-1-yl)-5-fluoro-1-methyl-indazol-6-yl]-2-azaspiro[3.3]heptan-6-yl]-7-azaspiro[3.5]nonan-2-yl]-4-oxo-quinazolin-6-yl]oxy-4-fluoro-phenyl]-3-azabicyclo[3.1.0]hexane-3-sulfonamide] | < 1 | 50 to 90 | 11860 |  |  |  |
| CCN(C)S(=O)(=O)Nc1ccc(F)c(Oc2ccc3ncn(C4CC5(CCN(C6CCC(c7cc8c(cc7F)c(N7CCC(=O)NC7=O)nn8C)CC6F)CC5)C4)c(=O)c3c2)c1C#N (single isomer, unassigned) [Compound 86] |  |  |  | < 1 | *** (<=50%) | 9.88 |
| Cn1nc(N2CCC(=O)NC2=O)c2cc(F)c(N3CC4(CC(N5CCC6(CC5)CC(n5cnc7ccc(Oc8c(F)ccc(NS(=O)(=O)C9CC9)c8C#N)cc7c5=O)C6)C4)C3)cc21 [Compound 260, N-[2-cyano-3-[3-[7-[2-[3-(2,4-dioxohexahydropyrimidin-1-yl)-5-fluoro-1-methyl-indazol-6-yl]-2-azaspiro[3.3]heptan-6-yl]-7-azaspiro[3.5]nonan-2-yl]-4-oxo-quinazolin-6-yl]oxy-4-fluoro-phenyl]cyclopropanesulfonamide] | < 1 | 50 to 90 | 12720 |  |  |  |
| CCN(C)S(=O)(=O)Nc1ccc(F)c(Oc2ccc3ncn(C4CC5(CCN(C6CCC(c7cc8c(cc7F)c(N7CCC(=O)NC7=O)nn8C)CC6F)CC5)C4)c(=O)c3c2)c1C#N (single isomer, unassigned) [Compound 83, 6-[2-cyano-3-[[ethyl(methyl)sulfamoyl]amino]-6-fluoro-phenoxy]-3-[7-[4-[3-(2,4-dioxohexahydropyrimidin-1-yl)-5-fluoro-1-methyl-indazol-6-yl]-2-fluoro-cyclohexyl]-7-azaspiro[3.5]nonan-2-yl]-4-oxo-quinazoline] | < 1 | < 50 | 14100 |  |  |  |
| CCN(C)S(=O)(=O)Nc1ccc(F)c(Oc2ccc3ncc([C@@H]4COC5(CCN(C6CCC(c7ccc(NC8CCC(=O)NC8=O)cc7F)CC6)CC5)C4)nc3c2)c1C#N (single isomer, unassigned) [Compound 60] |  | < 50 |  | < 1 |  | 7.88 |
| CCN(C)S(=O)(=O)Nc1ccc(F)c(Oc2ccc3ncc(C4CC5(CCN(C6CC7(C6)CN(c6cc8c(cc6F)c(N6CCC(=O)NC6=O)nn8C)C7)CC5)C4)nc3c2)c1C#N (stereo not drawn) [Compound 177, 7-[2-cyano-3-[[ethyl(methyl)sulfamoyl]amino]-6-fluoro-phenoxy]-2-[7-[2-[3-(2,4-dioxohexahydropyrimidin-1-yl)-5-fluoro-1-methyl-indazol-6-yl]-2-azaspiro[3.3]heptan-6-yl]-7-azaspiro[3.5]nonan-2-yl]quinoxaline] | < 1 | 50 to 90 |  |  |  | 7.36 |
| CCN(C)S(=O)(=O)Nc1ccc(F)c(Oc2ccc3ncn(C4CC5(C4)CN(C4CCC(c6cc7c(cc6F)c(N6CCC(=O)NC6=O)nn7C)CC4)C5)c(=O)c3c2)c1C#N (single isomer, unassigned) [Compound 204, 6-[2-cyano-3-[[ethyl(methyl)sulfamoyl]amino]-6-fluoro-phenoxy]-3-[2-[4-[3-(2,4-dioxohexahydropyrimidin-1-yl)-5-fluoro-1-methyl-indazol-6-yl]cyclohexyl]-2-azaspiro[3.3]heptan-6-yl]-4-oxo-quinazoline] |  |  | >40000 | < 1 | ** (<90% and >50%) |  |
| CO[C@H]1CCN(S(=O)(=O)Nc2ccc(F)c(Oc3ccc4ncn([C@H]5COC6(CCN(C7CC8(C7)CN(c7cc9c(cc7F)c(N7CCC(=O)NC7=O)nn9C)C8)CC6)C5)c(=O)c4c3)c2C#N)C1 [Compound 157, (3S)-N-[2-cyano-3-[3-[(3R)-8-[2-[3-(2,4-dioxohexahydropyrimidin-1-yl)-5-fluoro-1-methyl-indazol-6-yl]-2-azaspiro[3.3]heptan-6-yl]-1-oxa-8-azaspiro[4.5]decan-3-yl]-4-oxo-quinazolin-6-yl]oxy-4-fluoro-phenyl]-3-methoxy-pyrrolidine-1-sulfonamide] | < 1 | 50 to 90 |  |  |  | 8.83 |

Reference: patent US20260297060A1, “COMPOUNDS FOR THE DEGRADATION OF MUTANT BRAF” (C4 THERAPEUTICS, INC., priority 2023, published 2026)
